Among the data in US20110015225A1, “Heterocyclic compound” (Takeda Pharmaceutical Company Limited, priority 2008, published 2011) are IC50 values, retold here.

Molecules are shown by their SMILES.

The target in the assay is MCH receptor (SLC-1) (UniProt Q99705). Put plainly: MCH receptor antagonistic activity using GTPγS binding assay. As to conditions: [35S]-GTPγS binding, membrane fractions of SLC-1 expression CHO cells, 3×10^−10 M MCH, 25° C. 1 hr; read-out: Inhibitory Activity (IC50 value: nM). The format is biochemical, human. The protocol: Using human SLC-1 expression CHO cell clone 57 and rat SLC-1 expression CHO cell clone 44 described in WO01/82925, membrane fractions of SLC-1 expression CHO cells were prepared by the following method. In phosphate buffered saline (pH 7.4) supplemented with 5 mM EDTA (ethylenediaminetetraacetic acid) were suspended human and rat SLC-1 expression CHO cells (1×10^8) and centrifuged. Homogenate buffer (10 ml, 10 mM […], 5 mM EDTA, pH 7.5) was added to the pellets of the cells and, using Polytron Homogenizer, the mixture was homogenated. The supernatant obtained after centrifugation at 400×g for 15 min was further centrifuged at 100,000×g for 1 hr to give precipitate of the membrane fraction. The precipitate was suspended in 2 ml of an assay buffer [50 mM Tris-HCl (pH 7.5), 1 mM EDTA, 0.1% BSA (bovine serum albumin), 10 mM MgCl2, 100 mM NaCl, 1 μM GDP (guanosine 5′-diphosphate), 0.25 mM PMSF (phenylmethylsulfonyl fluoride), […]] and centrifuged at 100,000×g for 1 hr. The membrane fraction recovered as precipitate was suspended again in 20 ml of an assay buffer, and after dispensing, preserved at −80° C. and used upon thawing each time when in use.
The MCH receptor antagonistic activity of the test compound was determined as follows. The membrane fractions of SLC-1 expression CHO cells (171 μl) diluted with an assay buffer was dispensed to a polypropylene 96 well plate and 3×10^−10 M MCH (2 μl) diluted with DMSO solution, test compound solution (2 μl) diluted to various concentrations and [^35S]-Guanosine 5′-(γ-thio)triphosphate (25 μl, Daiichi Pure Chemicals Co., Ltd.) were respectively added (cellular membrane final concentration: 20 μg/ml, [^35S]-Guanosine 5′-(γ-thio)triphosphate final concentration: 0.33 nM). The reaction mixture was reacted at 25° C. for 1 hr with stirring, suction filtered with a glass filter (GF-C) and washed 3 times with a wash solution (300 μl, 50 mM Tris-HCl buffer, pH 7.5). Liquid scintillator ([…]) was added to the glass filter and the residual radioactivity was determined by a liquid scintillation counter.
Binding inhibition (%)=(radioactivity upon addition of test compound and MCH−radioactivity upon addition of DMSO solution)/(radioactivity upon addition of MCH−radioactivity upon addition of DMSO solution)×100
From the binding inhibition (%), IC50 of the test compound was calculated.
In general terms: Binding of GTPγS marks nucleotide exchange on a G protein.
Consider `Cc1c(NC(=O)c2ccc(OCC3CC3)cc2)ccc2cc(CNCCCS(C)(=O)=O)cnc12` [Ex. 2, 4-(cyclopropylmethoxy)-N-[8-methyl-3-({[3-(methylsulfonyl)propyl]amino}methyl)quinolin-7-yl]benzamide], for which the half-inhibitory concentration (IC50) turned out to be 2.3 nM.
Take `Cc1c(NC(=O)c2ccc(OCC3CC3)cc2)ccc2cc(C(C)NCCCS(C)(=O)=O)cnc12` (centres unmarked) [Ex. 3, 4-(cyclopropylmethoxy)-N-[8-methyl-3-(1-{[3-(methylsulfonyl)propyl]amino}ethyl)quinolin-7-yl]benzamide]: the IC50 was determined as 2.2 nM.
In the case of `Cc1c(NC(=O)c2ccc(OCC3CC3)cc2)ccc2cc(CNCC(C)(C)CS(C)(=O)=O)cnc12` [Ex. 4, 4-(cyclopropylmethoxy)-N-[3-({[2,2-dimethyl-3-(methylsulfonyl)propyl]amino}methyl)-8-methylquinolin-7-yl]benzamide], the IC50 was determined as 2.8 nM.
Turning to `Cc1c(NC(=O)c2ccc(OCC3CC3)cc2)ccc2cc(CNCCNS(C)(=O)=O)cnc12` [Ex. 6, 4-(cyclopropylmethoxy)-N-{8-methyl-3-[({2-[(methylsulfonyl)amino]ethyl}amino)methyl]quinolin-7-yl}benzamide], the IC50 was found to be 4 nM.
As to `Cc1c(NC(=O)c2ccc(OCC3CC3)cc2)ccc2cc(C(C)NCCNS(C)(=O)=O)cnc12` (centres unmarked) [Ex. 7, 4-(cyclopropylmethoxy)-N-{8-methyl-3-[1-({2-[(methylsulfonyl)amino]ethyl}amino)ethyl]quinolin-7-yl}benzamide], the IC50 is 3.7 nM.
Consider `Cc1c(NC(=O)c2ccc(OCC3CC3)cc2)ccc2cc(CNC3CCN(S(C)(=O)=O)CC3)cnc12` [Ex. 8, 4-(cyclopropylmethoxy)-N-[8-methyl-3-({[1-(methylsulfonyl)piperidin-4-yl]amino}methyl)quinolin-7-yl]benzamide], for which the IC50 came to 3.9 nM.
Under `Cc1c(NC(=O)c2ccc(OCC3CC3)cc2)ccc2cc(CNCCCNS(C)(=O)=O)cnc12` [Ex. 13, 4-(cyclopropylmethoxy)-N-{8-methyl-3-[({3-[(methylsulfonyl)amino]propyl}amino)methyl]quinolin-7-yl}benzamide] stands 2.8 nM.
Under `Cc1c(NC(=O)c2ccc(OCC3CC3)cc2)ccc2cc(CNCC3CCN(S(C)(=O)=O)CC3)cnc12` [Ex. 14, 4-(cyclopropylmethoxy)-N-{8-methyl-3-[({[1-(methylsulfonyl)piperidin-4-yl]methyl}amino)methyl]quinolin-7-yl}benzamide] stands 3 nM; under `Cc1c(NC(=O)c2ccc(OCC3CC3)cc2)ccc2cc(CNCC3(O)CCS(=O)(=O)CC3)cnc12` [Ex. 15, 4-(cyclopropylmethoxy)-N-[3-({[(4-hydroxy-1,1-dioxidotetrahydro-2H-thiopyran-4-yl)methyl]amino}methyl)-8-methylquinolin-7-yl]benzamide], 5.6 nM; under `Cc1c(NC(=O)c2ccc(OCC3CC3)cc2)ccc2cc(CNCC3CCS(=O)(=O)CC3)cnc12` [Ex. 16, 4-(cyclopropylmethoxy)-N-[3-({[(1,1-dioxidotetrahydro-2H-thiopyran-4-yl)methyl]amino}methyl)-8-methylquinolin-7-yl]benzamide], 1.8 nM.
With `Cc1c(NC(=O)c2ccc(OCCC3CC3)cc2)ccc2cc(CNCCCS(C)(=O)=O)cnc12` [Ex. 18, 4-(2-cyclopropylethoxy)-N-[8-methyl-3-({[3-(methylsulfonyl)propyl]amino}methyl)quinolin-7-yl]benzamide], the IC50 is 1.1 nM.
With `Cc1c(NC(=O)c2ccc(OCCC3CC3)cc2)ccc2cc(CNC3CCS(=O)(=O)CC3)cnc12` [Ex. 20, 4-(2-cyclopropylethoxy)-N-(3-{[(1,1-dioxidotetrahydro-2H-thiopyran-4-yl)amino]methyl}-8-methylquinolin-7-yl)benzamide], the IC50 was 1.4 nM.
As for `Cc1c(NC(=O)c2ccc(OCCC3CC3)cc2)ccc2cc(CNC3CC[S+]([O-])CC3)cnc12` (stereo not drawn) [Ex. 21, 4-(2-cyclopropylethoxy)-N-(8-methyl-3-{[(trans-1-oxidotetrahydro-2H-thiopyran-4-yl)amino]methyl}quinolin-7-yl)benzamide], the IC50 was determined as 2.7 nM.
In the case of `Cc1c(NC(=O)c2ccc(OCCC3CC3)cc2)ccc2cc(CNC3CC[S+]([O-])CC3)cnc12` (stereo not drawn) [Ex. 22, 4-(2-cyclopropylethoxy)-N-(8-methyl-3-{[(cis-1-oxidotetrahydro-2H-thiopyran-4-yl)amino]methyl}quinolin-7-yl)benzamide], the IC50 was determined as 1.8 nM.
On to `Cc1c(NC(=O)c2ccc(OCCC3CC3)cc2F)ccc2cc(CNC3CCS(=O)(=O)CC3)cnc12` [Ex. 23, 4-(2-cyclopropylethoxy)-N-(3-{[(1,1-dioxidotetrahydro-2H-thiopyran-4-yl)amino]methyl}-8-methylquinolin-7-yl)-2-fluorobenzamide], for which the IC50 amounted to 1.5 nM.
For `Cc1c(NC(=O)c2ccc(OCCC3CC3)cc2F)ccc2cc(CNC3CC[S+]([O-])CC3)cnc12` (stereo not drawn) [Ex. 24, 4-(2-cyclopropylethoxy)-2-fluoro-N-(8-methyl-3-{[(trans-1-oxidotetrahydro-2H-thiopyran-4-yl)amino]methyl}quinolin-7-yl)benzamide], the IC50 was determined as 1.5 nM.
With `Cc1c(NC(=O)c2ccc(OCCC3CC3)cc2F)ccc2cc(CNC3CC[S+]([O-])CC3)cnc12` (stereo not drawn) [Ex. 25, 4-(2-cyclopropylethoxy)-2-fluoro-N-(8-methyl-3-{[cis-1-oxidotetrahydro-2H-thiopyran-4-yl)amino]methyl}quinolin-7-yl)benzamide], the IC50 came out at 1.2 nM.
With `Cc1c(NC(=O)c2ccc(OCC3CC3)cc2)ccc2cc(CNCCCC[S+](C)[O-])cnc12` (centres unmarked) [Ex. 26, 4-(cyclopropylmethoxy)-N-[8-methyl-3-({[4-(methylsulfinyl)butyl]amino}methyl)quinolin-7-yl]benzamide], the IC50 stood at 4.6 nM.
As to `Cc1c(NC(=O)c2ccc(OCC3CC3)cc2)ccc2cc(CNCCCCS(C)(=O)=O)cnc12` [Ex. 27, 4-(cyclopropylmethoxy)-N-[8-methyl-3-({[4-(methylsulfonyl)butyl]amino}methyl)quinolin-7-yl]benzamide], the IC50 was determined as 1.6 nM.
As to `Cc1c(NC(=O)c2ccc(OCC3CC3)cc2)ccc2cc(C(C)NC3CCS(=O)(=O)CC3)cnc12` (centres unmarked) [Ex. 28, 4-(cyclopropylmethoxy)-N-(3-{1-[(1,1-dioxidotetrahydro-2H-thiopyran-4-yl)amino]ethyl}-8-methylquinolin-7-yl)benzamide], the IC50 came out at 4.6 nM.
Regarding `Cc1c(NC(=O)c2ccc(OCC3CC3)cc2)ccc2cc([C@@H](C)NC3CC[S+]([O-])CC3)cnc12` (stereo partly drawn) [Ex. 30, 4-(cyclopropylmethoxy)-N-(8-methyl-3-{(1R)-1-[cis-(1-oxidotetrahydro-2H-thiopyran-4-yl)amino]ethyl}quinolin-7-yl)benzamide], the IC50 was found to be 3.9 nM.
Turning to `Cc1c(NC(=O)c2ccc(OCC3CC3)cc2)ccc2cc(CNC3CCS(=O)(=O)CC3)cnc12` [Ex. 31, 4-(cyclopropylmethoxy)-N-(3-{[(1,1-dioxidotetrahydro-2H-thiopyran-4-yl)amino]methyl}-8-methylquinolin-7-yl)benzamide], the IC50 worked out at 5.1 nM.
The value for `Cc1c(NC(=O)c2ccc(OCC3CC3)cc2)ccc2cc(CNC3CC[S+]([O-])CC3)cnc12` (stereo not drawn) [Ex. 32, 4-(cyclopropylmethoxy)-N-(8-methyl-3-{[(trans-1-oxidotetrahydro-2H-thiopyran-4-yl)amino]methyl}quinolin-7-yl)benzamide] was 6.5 nM.
As for `Cc1c(NC(=O)c2ccc(OCC3CC3)cc2)ccc2cc(CNC3CC[S+]([O-])CC3)cnc12` (stereo not drawn) [Ex. 33, 4-(cyclopropylmethoxy)-N-(8-methyl-3-{[(cis-1-oxidotetrahydro-2H-thiopyran-4-yl)amino]methyl}quinolin-7-yl)benzamide], the IC50 came to 4.1 nM.
Regarding `Cc1c(NC(=O)c2ccc(OCC3CC3)cc2F)ccc2cc(CNC3CCS(=O)(=O)CC3)cnc12` [Ex. 34, 4-(cyclopropylmethoxy)-N-(3-{[(1,1-dioxidotetrahydro-2H-thiopyran-4-yl)amino]methyl}-8-methylquinolin-7-yl)-2-fluorobenzamide], the IC50 is 2.7 nM.
Take `Cc1c(NC(=O)c2ccc(OCC3CC3)cc2F)ccc2cc(CNC3CC[S+]([O-])CC3)cnc12` (stereo not drawn) [Ex. 35, 4-(cyclopropylmethoxy)-2-fluoro-N-(8-methyl-3-{[(trans-1-oxidotetrahydro-2H-thiopyran-4-yl)amino]methyl}quinolin-7-yl)benzamide]: the IC50 was 5.6 nM.

As a reminder, the IC50 is the concentration at which inhibition is half-maximal.
